Among the data in patent publication US9169241B2, “Quinolinyloxyphenylsulfonamides” (Max-Planck-Gesellschaft Zur Forderung der Wissenschaften …, priority 2009, dated 2015) are melting point and IC50 values, retold here.

The target of data set [1] is T1, wild type AXL (wtAXL) receptor tyrosine kinase (Homo sapiens, UniProt P30530).
T1 construct: WtAXL cDNA was cloned into vector pLXSN(ESK) and transfected into Phoenix E packaging cells; expressed in transfected cells; host or cells: NIH3T3 N7 (mouse fibroblasts), retrovirally infected, clone 22
T1 sequence (P30530 26-894): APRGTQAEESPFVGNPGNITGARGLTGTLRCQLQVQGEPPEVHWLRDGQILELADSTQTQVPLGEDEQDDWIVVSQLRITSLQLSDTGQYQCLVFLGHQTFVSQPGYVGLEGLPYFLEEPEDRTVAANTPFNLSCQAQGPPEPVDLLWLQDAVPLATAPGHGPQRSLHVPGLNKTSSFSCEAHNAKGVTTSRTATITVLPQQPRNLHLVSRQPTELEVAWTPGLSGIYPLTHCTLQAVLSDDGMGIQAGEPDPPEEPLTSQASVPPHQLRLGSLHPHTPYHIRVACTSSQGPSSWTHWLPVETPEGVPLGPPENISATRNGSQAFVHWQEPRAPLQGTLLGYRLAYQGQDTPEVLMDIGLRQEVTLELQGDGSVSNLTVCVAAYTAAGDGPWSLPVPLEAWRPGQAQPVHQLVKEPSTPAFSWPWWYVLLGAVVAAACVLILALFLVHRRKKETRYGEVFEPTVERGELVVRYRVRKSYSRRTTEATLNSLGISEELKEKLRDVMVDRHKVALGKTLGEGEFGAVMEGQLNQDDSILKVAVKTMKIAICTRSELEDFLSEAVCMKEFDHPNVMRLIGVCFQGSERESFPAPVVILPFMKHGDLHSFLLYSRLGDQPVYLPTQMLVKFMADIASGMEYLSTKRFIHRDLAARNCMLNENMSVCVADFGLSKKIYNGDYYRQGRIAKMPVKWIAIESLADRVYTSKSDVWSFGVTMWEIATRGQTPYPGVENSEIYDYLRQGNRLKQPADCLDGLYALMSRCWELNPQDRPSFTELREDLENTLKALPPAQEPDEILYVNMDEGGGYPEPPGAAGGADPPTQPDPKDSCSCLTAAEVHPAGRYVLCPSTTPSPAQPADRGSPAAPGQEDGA
Briefly: NIH-3T3-AXL cellular kinase assay (pY-AXL-ELISA). The data set is classed as cell-based. The note with it: NIH-3T3-AXL (clone 22) cells, serum depleted, compounds 1 h; Table Ia. The method, boiled down:
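Phospho-AXL was quantified by ELISA in lysates (4G10-biotin, streptavidin-AP, AttoPhos, 430/560 nm read at 90 min). The cells were monoclonal NIH3T3 lines stably transduced with human wtAXL, exposed to serial compound dilutions for 1 h before lysis.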
In general terms: In an ELISA, binding on a coated surface is turned into a signal by an enzyme label.

The test system of data set [2] is Hs578T. Briefly: Cell vitality assay (ATP assay, CellTiter-Glo). The class given is cell-based. As to conditions: Homo sapiens, Hs-578T; HS578T cell line, 72 h; Table Ib; read-out: IC50 ATP-Assay HS578T after 72 h. The method, boiled down: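 ATP-based luminescence (CellTiter-Glo) after 72 h exposure of 1000 cells/well to seven compound concentrations from 0.195 to 12.5 μM. IC50 defined as concentration reducing ATP to 50% of DMSO control.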
A general note: Cellular ATP, detected with luciferase, serves as a proxy for viable cell number.

For data set [3], the system named is Hs578T. Briefly: Wound healing migration assay. The data set is classed as cell-based. As to conditions: Homo sapiens, Hs-578T; HS578T cell line; Table Ib. An outline of the steps: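 Compound exposure at 12.5, 6.25 and 3.125 μM, with DMSO control, on scratch-wounded monolayers (150000 cells/24 well, overnight). Wound closure imaged by microscopy, fixed with crystal violet after 48 h or 72 h depending on cell line; IC50 is the concentration giving 50% wound size between t0 and t48/t72.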

For data set [4], the system named is Hs578T. Briefly: Matrigel outgrowth assay/branching assay. The data set is classed as cell-based. The note with it: Homo sapiens, Hs-578T; HS578T cell line; Table Ib; read-out: Total branching inhibition in Matrigel HS578T. An outline of the steps: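 Matrigel 3 mg/ml, polymerized 1 h 37° C; 5000 cells/well + cmpd 3.125/1.56/0.78 μM or DMSO. Imaged 48/72/96 h, 5× objective. Positive = total branching block.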

pIC50: −log10 of the molar value. A value given as a limit tells only on which side of the number the result lay.

For `COc1cc2c(Oc3ccc(NS(=O)(=O)c4cccs4)cc3F)ccnc2cc1OCCCN(C)C` [Example 186, Thiophene-2-sulfonic acid {4-[7-(3-dimethylamino-propoxy)-6-methoxy-quinolin-4-yloxy]-3-fluoro-phenyl}-amide], the melting point – broadly, the temperature, or range, at which the solid turns liquid – was 186 to 188 °C. In data set [1], this compound gave a pIC50 greater than 6.30. Besides, the pIC50 in data set [2] was no less than 4.90. Also, in data set [3], the pIC50 was no less than 4.90. Besides, in data set [4], the pIC50 was 4.60 to 5.00.
Consider `COc1cc2c(Oc3cc(NS(=O)(=O)c4cc(Cl)ccc4Cl)ccc3F)ccnc2cc1OCCCN1CCC(C)CC1` [Example 191, 2,5-Dichloro-N-(4-fluoro-3-{6-methoxy-7-[3-(4-methyl-piperidin-1-yl)-propoxy]-quinolin-4-yloxy}-phenyl)-benzenesulfonamide], for which the melting point fell in the range of 127 to 130 °C. This compound also had a pIC50 in data set [1] of 5.52 to 6.30. Also, the pIC50 in data set [2] was no less than 4.90. The compound also showed a pIC50 in data set [3] of no less than 4.90. For the same compound, the pIC50 in data set [4] is 4.60 to 5.00.
In turn, `COc1cc2c(Oc3ccc(Cl)c(NS(=O)(=O)c4cc(F)ccc4F)c3)ccnc2cc1OCCCN1CCC(C)CC1` [Example 193, N-(2-Chloro-5-{6-methoxy-7-[3-(4-methyl-piperidin-1-yl)-propoxy]-quinolin-4-yloxy}-phenyl)-2,5-difluoro-benzenesulfonamide] returned a melting point of 206 to 208 °C. In data set [1], this compound had a pIC50 of 5.52 to 6.30. Also, the pIC50 in data set [2] is 4.30 to 4.90. Moreover, the pIC50 in data set [3] was no less than 4.90. For the same compound, the pIC50 in data set [4] was 4.60 to 5.00.
Taken in the same sequence, the figures for `COc1cc2c(Oc3ccc(Cl)c(NS(=O)(=O)c4c(F)cccc4F)c3)ccnc2cc1OCCCN1CCC(C)CC1` [Example 194, N-(2-Chloro-5-{6-methoxy-7-[3-(4-methyl-piperidin-1-yl)-propoxy]-quinolin-4-yloxy}-phenyl)-2,6-difluoro-benzenesulfonamide] were 222 to 226 °C, 5.52 to 6.30, 4.30 to 4.90, 4.30 to 4.90 and 4.60 to 5.00.
With `COc1cc2c(Oc3ccc(Cl)c(NS(=O)(=O)c4cc(Cl)ccc4Cl)c3)ccnc2cc1OCCCN1CCC(C)CC1` [Example 197, 2,5-Dichloro-N-(2-chloro-5-{6-methoxy-7-[3-(4-methyl-piperidin-1-yl)-propoxy]-quinolin-4-yloxy}-phenyl)-benzenesulfonamide], the melting point was in the range of 223 to 224 °C. The same compound had a pIC50 in data set [1] of 5.52 to 6.30. Moreover, in data set [2], the pIC50 is 4.30 to 4.90. This compound showed a pIC50 in data set [3] of 4.30 to 4.90. Moreover, the pIC50 in data set [4] is 4.60 to 5.00.
On to `COc1cc2c(Oc3ccc(Cl)c(NS(=O)(=O)c4c(Cl)cccc4Cl)c3)ccnc2cc1OCCCN1CCC(C)CC1` [Example 198, 2,6-Dichloro-N-(2-chloro-5-{6-methoxy-7-[3-(4-methyl-piperidin-1-yl)-propoxy]-quinolin-4-yloxy}-phenyl)-benzenesulfonamide], for which the melting point is 206 to 208 °C. In data set [1], this compound had a pIC50 of 5.52 to 6.30. Further, in data set [2], the pIC50 is 4.30 to 4.90. In data set [3], this compound had a pIC50 of 4.30 to 4.90. Besides, in data set [4], the pIC50 was 4.60 to 5.00.
`COc1ccc2nccc(Oc3ccc(NS(=O)(=O)c4cc(F)ccc4F)cc3F)c2c1` [Example 199, 2,5-Difluoro-N-[3-fluoro-4-(6-methoxy-quinolin-4-yloxy)-phenyl]-benzenesulfonamide] registered a melting point of 249 to 250 °C. Further, in data set [1], the pIC50 was 5.52 to 6.30. The pIC50 in data set [2] is 4.30 to 4.90. Besides, the pIC50 in data set [3] was 4.30 to 4.90. Also, in data set [4], the pIC50 was 4.60 to 5.00.
With `COc1ccc2nccc(Oc3ccc(NS(=O)(=O)c4ccccc4C(F)(F)F)cc3F)c2c1` [Example 201, N-[3-Fluoro-4-(6-methoxy-quinolin-4-yloxy)-phenyl]-2-trifluoromethyl-benzenesulfonamide], the melting point fell in the range of 168 to 169 °C. This compound had a pIC50 in data set [1] of 5.52 to 6.30. Further, the pIC50 in data set [2] was 4.30 to 4.90. Further, the pIC50 in data set [3] is 4.30 to 4.90. For the same compound, the pIC50 in data set [4] was 4.60 to 5.00.
The compound `COc1ccc2nccc(Oc3ccc(NS(=O)(=O)c4ccccc4OC(F)(F)F)cc3F)c2c1` [Example 202, N-[3-Fluoro-4-(6-methoxy-quinolin-4-yloxy)-phenyl]-2-trifluoromethoxy-benzenesulfonamide] yielded a melting point of 175 to 176 °C. In data set [1], the pIC50 is 5.52 to 6.30. The pIC50 in data set [2] was 4.30 to 4.90. Besides, in data set [3], the pIC50 is 4.30 to 4.90. In addition, the pIC50 in data set [4] is 4.60 to 5.00.
Compound `COc1cc2c(Oc3ccc(NS(=O)(=O)c4cc(F)ccc4F)cc3OC)ccnc2cc1OCCCN1CCC(C)CC1` [Example 207, 2,5-Difluoro-N-(3-methoxy-4-{6-methoxy-7-[3-(4-methyl-piperidin-1-yl)-propoxy]-quinolin-4-yloxy}-phenyl)-benzenesulfonamide] registered a melting point of 170 to 172 °C. Also, the pIC50 in data set [1] was 5.52 to 6.30. Also, the pIC50 in data set [2] was no less than 4.90. In addition, the pIC50 in data set [3] was no less than 4.90. Further, the pIC50 in data set [4] was 4.60 to 5.00.
In turn, `COc1cc2c(Oc3ccc(NS(=O)(=O)c4ccccc4C(F)(F)F)cc3OC)ccnc2cc1OCCCN1CCC(C)CC1` [Example 208, N-(3-Methoxy-4-{6-methoxy-7-[3-(4-methyl-piperidin-1-yl)-propoxy]-quinolin-4-yloxy}-phenyl)-2-trifluoromethyl-benzenesulfonamide] registered a melting point of 216 to 218 °C. Further, the pIC50 in data set [1] is greater than 6.30. The pIC50 in data set [2] is no less than 4.90. In data set [3], this compound gave a pIC50 of 4.30 to 4.90. For the same compound, the pIC50 in data set [4] was 4.60 to 5.00.
